Reference: ChEMBL document CHEMBL1201862, “PubChem BioAssay data set” (2004)
Calls of active or inactive are those of the source. Cut-off read from the data, not from the text of the source, for most assays here: actives have a measured IC50 and inactives only a lower limit.

Tests used:
Type in all cases: functional
[1] = target: T1, Sentrin-specific protease 7 (Homo sapiens, UniProt Q9BQF6); assay: inhibition of human SENP7 cleavage activity – biochemical, luminescence, SAR follow-up (AID 504497)
T1 sequence (Q9BQF6 whole entry): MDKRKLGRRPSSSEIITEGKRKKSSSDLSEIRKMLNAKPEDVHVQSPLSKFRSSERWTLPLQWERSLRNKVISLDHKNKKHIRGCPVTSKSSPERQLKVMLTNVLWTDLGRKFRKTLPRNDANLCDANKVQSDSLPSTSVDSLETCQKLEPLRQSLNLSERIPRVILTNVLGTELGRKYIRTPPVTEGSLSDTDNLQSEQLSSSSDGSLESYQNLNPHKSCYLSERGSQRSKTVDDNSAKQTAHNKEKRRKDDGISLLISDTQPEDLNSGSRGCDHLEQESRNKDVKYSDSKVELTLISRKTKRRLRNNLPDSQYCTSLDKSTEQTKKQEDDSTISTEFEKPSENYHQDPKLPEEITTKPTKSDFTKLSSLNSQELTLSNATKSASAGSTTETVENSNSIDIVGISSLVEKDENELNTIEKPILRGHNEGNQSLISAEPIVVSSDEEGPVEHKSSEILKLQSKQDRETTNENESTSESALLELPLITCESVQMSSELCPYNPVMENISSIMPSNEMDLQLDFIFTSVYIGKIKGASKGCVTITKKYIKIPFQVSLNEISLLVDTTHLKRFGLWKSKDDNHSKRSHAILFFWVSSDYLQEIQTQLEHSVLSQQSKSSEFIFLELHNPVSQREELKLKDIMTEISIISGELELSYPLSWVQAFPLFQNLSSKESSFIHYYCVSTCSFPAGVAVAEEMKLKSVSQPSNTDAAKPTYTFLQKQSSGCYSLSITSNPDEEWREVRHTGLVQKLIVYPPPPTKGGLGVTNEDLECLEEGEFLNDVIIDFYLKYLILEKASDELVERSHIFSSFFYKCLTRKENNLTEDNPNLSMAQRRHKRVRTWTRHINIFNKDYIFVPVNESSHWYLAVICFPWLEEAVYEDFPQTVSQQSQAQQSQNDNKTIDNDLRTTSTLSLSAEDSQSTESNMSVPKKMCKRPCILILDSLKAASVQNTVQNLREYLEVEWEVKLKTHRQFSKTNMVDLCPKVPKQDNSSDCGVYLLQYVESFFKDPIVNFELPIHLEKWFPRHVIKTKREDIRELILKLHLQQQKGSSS

[2] = target: T2, Sentrin-specific protease 6 (Homo sapiens, UniProt Q9GZR1); assay: inhibition of human SENP6 catalytic domain – biochemical, luminescence, set 2, SAR follow-up (AID 588598)
T2 sequence (Q9GZR1 whole entry): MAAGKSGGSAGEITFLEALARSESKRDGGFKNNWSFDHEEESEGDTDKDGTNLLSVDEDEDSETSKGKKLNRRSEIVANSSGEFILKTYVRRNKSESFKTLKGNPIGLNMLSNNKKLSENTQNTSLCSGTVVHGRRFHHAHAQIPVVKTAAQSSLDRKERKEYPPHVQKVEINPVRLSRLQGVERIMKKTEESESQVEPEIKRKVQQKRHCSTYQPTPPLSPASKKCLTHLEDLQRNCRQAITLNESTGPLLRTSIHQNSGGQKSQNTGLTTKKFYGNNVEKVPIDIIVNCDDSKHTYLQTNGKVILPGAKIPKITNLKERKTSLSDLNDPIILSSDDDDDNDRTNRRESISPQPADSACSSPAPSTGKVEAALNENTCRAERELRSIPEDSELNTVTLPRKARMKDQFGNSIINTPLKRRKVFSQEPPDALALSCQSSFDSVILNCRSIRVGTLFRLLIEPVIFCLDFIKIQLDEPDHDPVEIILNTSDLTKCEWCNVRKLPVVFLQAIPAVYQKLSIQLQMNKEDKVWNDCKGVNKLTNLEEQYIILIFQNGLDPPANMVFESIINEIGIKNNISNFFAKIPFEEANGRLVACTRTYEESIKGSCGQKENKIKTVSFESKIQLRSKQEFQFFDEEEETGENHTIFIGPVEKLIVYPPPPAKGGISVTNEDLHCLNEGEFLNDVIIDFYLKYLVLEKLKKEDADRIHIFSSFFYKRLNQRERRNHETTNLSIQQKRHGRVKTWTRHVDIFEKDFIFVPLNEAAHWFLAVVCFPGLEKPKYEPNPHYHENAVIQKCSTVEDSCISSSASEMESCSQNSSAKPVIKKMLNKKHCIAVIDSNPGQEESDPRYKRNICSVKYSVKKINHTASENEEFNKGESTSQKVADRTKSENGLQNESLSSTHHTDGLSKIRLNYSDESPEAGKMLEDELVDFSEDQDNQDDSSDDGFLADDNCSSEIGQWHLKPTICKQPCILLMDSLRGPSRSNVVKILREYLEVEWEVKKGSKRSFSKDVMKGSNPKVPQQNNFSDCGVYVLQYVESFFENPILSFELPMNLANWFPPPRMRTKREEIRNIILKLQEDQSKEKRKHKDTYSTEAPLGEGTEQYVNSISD

[3] = target: T3, Sentrin-specific protease 8 (Homo sapiens, UniProt Q96LD8); assay: inhibition of human SENP8 cleavage activity – biochemical, luminescence, SAR follow-up (AID 504501)
T3 sequence (Q96LD8 whole entry): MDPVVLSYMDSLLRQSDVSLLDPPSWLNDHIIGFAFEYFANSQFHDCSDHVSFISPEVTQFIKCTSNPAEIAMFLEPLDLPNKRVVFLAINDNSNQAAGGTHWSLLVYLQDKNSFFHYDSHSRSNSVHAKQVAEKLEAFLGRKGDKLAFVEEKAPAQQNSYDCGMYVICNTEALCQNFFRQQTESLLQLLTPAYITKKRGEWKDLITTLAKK

[4] = target: T1, Sentrin-specific protease 7; assay: inhibition of human SENP7 cleavage activity – biochemical, luminescence, set 2, SAR follow-up (AID 588600)
[5] = target: T2, Sentrin-specific protease 6; assay: SAR Analysis of small molecule inhibitors of Sentrin-specific protease 6 (SENP6) using a Luminescent assay. [Related pubchem assays (depositor defined):AID2582, AID2599]
[6] = target: T3, Sentrin-specific protease 8; assay: inhibition of sentrin protease 8 – biochemical, luminescence, set 2, SAR follow-up (AID 588601)
Caspase-3 [7] = target: T4, Caspase-3 (Homo sapiens, UniProt P42574); assay: SAR Analysis of small molecule inhibitors of Sentrin-specific proteases (SENPs) using a Caspase-3 Selectivity assay. [Related pubchem assays (depositor defined):AID2540, AID2599, AID434973, AID489001]
T4 sequence (P42574 whole entry): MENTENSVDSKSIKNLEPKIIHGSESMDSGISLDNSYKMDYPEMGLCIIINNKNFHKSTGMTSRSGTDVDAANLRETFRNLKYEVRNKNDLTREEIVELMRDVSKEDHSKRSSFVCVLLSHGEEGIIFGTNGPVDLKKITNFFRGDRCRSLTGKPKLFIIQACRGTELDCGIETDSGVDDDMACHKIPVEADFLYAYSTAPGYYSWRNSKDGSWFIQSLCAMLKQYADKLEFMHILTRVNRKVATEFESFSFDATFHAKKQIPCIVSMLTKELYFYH

Caspase-3 [8] = target: T4, Caspase-3; assay: inhibition of recombinant caspase-3 activity – biochemical, luminescence, set 2, selectivity assay for SENP protease inhibitor project, SAR follow-up (AID 588599)
[9] = target: T5, Endoribonuclease toxin MazF (Escherichia coli K-12, UniProt P0AE70); assay: activation of MazEF endoribonuclease cleavage – biochemical, fluorescence, single-stranded RNA substrate, uHTS hits, dose response (AID 588481)
T5 sequence (P0AE70 whole entry): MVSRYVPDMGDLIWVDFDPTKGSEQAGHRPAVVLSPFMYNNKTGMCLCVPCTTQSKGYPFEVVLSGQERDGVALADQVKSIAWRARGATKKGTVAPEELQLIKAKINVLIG

[10] = target: T5, Endoribonuclease toxin MazF; assay: SAR analysis of small molecule activators of the MazEF TA System via a fluorescence-based single-stranded RNase assay counterscreen. [Related pubchem assays (depositor defined):AID504720, AID504743]
[11] = target: T5, Endoribonuclease toxin MazF; assay: MazEF toxin-antitoxin RNase activation – biochemical, fluorescence, single-stranded RNA substrate, SAR follow-up (AID 588603)
MEF = assay: SAR analysis of small molecule cytotoxicity of MazEF TA System activators in embryonic fibroblast (MEF) cells. [Related pubchem assays (depositor defined):AID504720, AID504743]; conditions: Mus musculus
[12] = target: T5, Endoribonuclease toxin MazF; assay: substrate-only fluorescence increase artefacts – biochemical, single-stranded RNase substrate, counter-screen for MazEF activator project, dose response (AID 588502)

SMILES: O=C(Nc1nc2ccccc2s1)c1cccs1
- IC50 [1]: 2.5 µM (active)
- IC50 [2]: 2.07 µM (active)
- IC50 [3]: > 99 µM (inactive)
- IC50 [4]: 2.67 µM (active)
- IC50 [5]: > 99 µM (inactive)
- IC50 [6]: 2.2 µM (active)
- IC50 (Caspase-3 [7]): 72 µM (active)
- IC50 (Caspase-3 [8]): 6.86 µM (active)

SMILES: Cc1ccc2nc(NCCc3ccc(Cl)cc3)c3nncn3c2c1
- EC50 [9]: 33.1 µM (inactive)
- EC50 [10]: > 99 µM (inactive)
- EC50 [11]: 17.7 µM (active)
- CC50 (MEF): > 99 µM (inactive)
- EC50 [12]: > 99 µM (inactive)
